From publication PMC11110727, “Exploiting thiol-functionalized benzosiloxaboroles for achieving diverse substitution patterns – synthesis, characterization and biological evaluation of promising antibacterial agents” (RSC Medicinal Chemistry, 2024)
Converted amounts (≈) assume the structure as drawn.

Tests used:
[1] = tested on: C. krusei ATCC 6258; assay: Antifungal activity: MIC/MFC, disc-diffusion; format: cell-based; settings: for diameter of inhibition zone: (-) = zone not observed, paper discs 9 mm; for MIC: read-out: MIC
Experimental: (§1) Direct antimicrobial activity was determined against the following standard strains: (1) Gram-positive cocci: methicillin-sensitive Staphylococcus aureus ATCC 6538P (MSSA), methicillin-resistant S. aureus subsp. aureus ATCC 43300 (MRSA), S. epidermidis ATCC 12228, Enterococcus faecium ATCC 6057, E. faecalis ATCC 29212, Bacillus subtilis ATCC 6633; (2) Gram-negative bacteria from Enterobacteriales order: Klebsiella pneumoniae ATCC 13883, Escherichia coli ATCC 25922, Enterobacter cloacae DSM 6234, Proteus mirabilis ATCC 12453, Serratia marcescens ATCC 13880; (3) Gram-negative non-fermentative rods: Acinetobacter baumannii ATCC 19606, Pseudomonas aeruginosa ATCC 27853, Stenotrophomonas maltophilia ATCC 12714, S. maltophilia ATCC 13637, Burkholderia cepacia ATCC 25416, Bordetella bronchiseptica ATCC 4617; (4) yeasts: Candida albicans ATCC 90028, C. krusei ATCC 6258, C. parapsilosis ATCC 22019, C. tropicalis (Castellani) Berkhout ATCC 750, C. tropicalis IBA 171, C. guilliermondii IBA 155, and Saccharomyces cerevisiae ATCC 9763. Moreover, 5 clinical strains of methicillin-resistant S. aureus were also included: NMI 664 K, NMI 1576 K, NMI 1712 K, NMI 1991 K, and NMI 2541 K. All strains were stored at −80 °C. Prior to testing, each bacterial strain was subcultured twice on tryptic soy agar TSA (bioMerieux) medium and yeast strains on Sabouraud dextrose agar (bioMerieux) for 24–48 h at 30 °C to ensure viability. The antimicrobial activity was evaluated as previously described[26] by the disc-diffusion method and the MIC determination assays according to the EUCAST (ref. [71] and [72]) and CLSI (ref. [53] and [73]) recommendations. Assessment of bactericidal (MBC) and fungicidal (MFC) activities was performed according to the CLSI recommendations.[54,74] […] The new benzosiloxaboroles were dissolved in DMSO (Sigma).

[2] = tested on: P. mirabilis ATCC 12453; assay: Antibacterial activity: MIC/MBC, MIC with PAβN, disc-diffusion; format: cell-based, Proteus mirabilis; settings: Proteus mirabilis, ATCC12453; P. mirabilis ATCC 12453; read-out: MIC
Experimental: as §1
(§2) Considering that the MDR efflux pumps often contribute to Gram-negative rod resistance, the MIC values of studied agents, with or without the pump inhibitor, PAβN (20 μg mL^−1) (Sigma), were determined.[75] The MIC was determined using Mueller–Hinton II broth medium (MHB) (Becton Dickinson) by the broth microdilution method, according to the CLSI guideliness.[53] To minimize the influence of PAβN on the destabilization of bacterial cell covers, the tests were conducted in the presence of 1 mM MgSO4 (Sigma).[76] At least a 4-fold reduction in the MIC value after the addition of PAβN was considered significant.[56,77]

[3] = tested on: K. pneumoniae ATCC 13883; assay: as above; format: cell-based, Klebsiella pneumoniae; settings: K. pneumoniae ATCC 13883; for MIC: Klebsiella pneumoniae, ATCC13883, read-out: MIC
Experimental: as §1, §2

[4] = tested on: S. maltophilia ATCC 13637; assay: as above; format: cell-based, Stenotrophomonas maltophilia; settings: S. maltophilia ATCC 13637; for MIC: read-out: MIC
Experimental: as §1, §2

[5] = tested on: S. cerevisiae ATCC 9763; assay: Antifungal activity: MIC/MFC, disc-diffusion; format: cell-based, Saccharomyces cerevisiae; settings: for diameter of inhibition zone: (-) = zone not observed, paper discs 9 mm; for MIC: read-out: MIC
Experimental: (§3) Direct antimicrobial activity was determined against the following standard strains: (1) Gram-positive cocci: methicillin-sensitive Staphylococcus aureus ATCC 6538P (MSSA), methicillin-resistant S. aureus subsp. aureus ATCC 43300 (MRSA), S. epidermidis ATCC 12228, Enterococcus faecium ATCC 6057, E. faecalis ATCC 29212, Bacillus subtilis ATCC 6633; (2) Gram-negative bacteria from Enterobacteriales order: Klebsiella pneumoniae ATCC 13883, Escherichia coli ATCC 25922, Enterobacter cloacae DSM 6234, Proteus mirabilis ATCC 12453, Serratia marcescens ATCC 13880; (3) Gram-negative non-fermentative rods: Acinetobacter baumannii ATCC 19606, Pseudomonas aeruginosa ATCC 27853, Stenotrophomonas maltophilia ATCC 12714, S. maltophilia ATCC 13637, Burkholderia cepacia ATCC 25416, Bordetella bronchiseptica ATCC 4617; (4) yeasts: Candida albicans ATCC 90028, C. krusei ATCC 6258, C. parapsilosis ATCC 22019, C. tropicalis (Castellani) Berkhout ATCC 750, C. tropicalis IBA 171, C. guilliermondii IBA 155, and Saccharomyces cerevisiae ATCC 9763. Moreover, 5 clinical strains of methicillin-resistant S. aureus were also included: NMI 664 K, NMI 1576 K, NMI 1712 K, NMI 1991 K, and NMI 2541 K. All strains were stored at −80 °C. Prior to testing, each bacterial strain was subcultured twice on tryptic soy agar TSA (bioMerieux) medium and yeast strains on Sabouraud dextrose agar (bioMerieux) for 24–48 h at 30 °C to ensure viability. The antimicrobial activity was evaluated as previously described[26] by the disc-diffusion method and the MIC determination assays according to the EUCAST (ref. [71] and [72]) and CLSI (ref. [53] and [73]) recommendations. Assessment of bactericidal (MBC) and fungicidal (MFC) activities was performed according to the CLSI recommendations.[54,74] The following reference agents were used: fluconazole (in the case of fungi), linezolid (for Gram-positive bacteria), and nitrofurantoin (for Gram-negative rods). The new benzosiloxaboroles were dissolved in DMSO (Sigma).

[6] = tested on: S. marcescens ATCC 13880; assay: Antibacterial activity: MIC/MBC, MIC with PAβN, disc-diffusion; format: cell-based, Serratia marcescens; settings: Serratia marcescens, ATCC13880; S. marcescens ATCC 13880; read-out: MIC
Experimental: as §1, §2

[7] = tested on: E. faecalis ATCC 29212; assay: Antibacterial activity: MIC/MBC determination and disc-diffusion; format: cell-based; settings: Enterococcus faecalis, ATCC29212, E. faecalis ATCC 29212; for MIC: read-out: MIC
Experimental: as §3

[8] = tested on: S. epidermidis ATCC 12228; assay: as above; format: cell-based; settings: Staphylococcus epidermidis, ATCC12228, S. epidermidis ATCC 12228; for MIC: read-out: MIC
Experimental: as §3

[9] = tested on: E. faecium ATCC 6057; assay: as above; format: cell-based; settings: Enterococcus faecium, ATCC6057, E. faecium ATCC 6057; for MIC: read-out: MIC
Experimental: as §3

[10] = tested on: S. aureus ATCC 43300 MRSA; assay: as above; format: cell-based; settings: Staphylococcus aureus, S. aureus ATCC 43300 MRSA; for MIC: read-out: MIC; for MBC: read-out: MBC (first MBC where Eagle effect)
Experimental: as §3

[11] = PAβN 20 μg mL^−1, MHB + 1 mM MgSO4
[12] = Stenotrophomonas maltophilia, ATCC13637
[13] = Saccharomyces cerevisiae, ATCC9763

SMILES	diameter of inhibition zone ([1]; C. krusei ATCC 6258)	MIC ([1]; Pichia kudriavzevii, ATCC6258)	MIC [2]	MIC [3]	MIC [4, 12]	diameter of inhibition zone ([5]; S. cerevisiae ATCC 9763)	MIC [5, 13]	MIC [6]	MIC [7]	MIC [8]	MIC [9]	MIC [10]	MBC [7]	MBC [8]	MBC [9]	MBC [10]	other results
COC(=O)CCSc1ccc2c(c1F)[Si](C)(C)OB2O [Compound 4, Methyl 3-((7-fluoro-3-hydroxy-1,1-dimethyl-1,3-dihydrobenzo[c][1,2,5]oxasilaborol-6-yl)thio)propanoate]	12 mm	200 mg/L (≈ 636 µM)	> 400 mg/L	> 400 mg/L	> 400 mg/L	32 mm	12.5 mg/L (≈ 39.8 µM)	> 400 mg/L	200 mg/L (≈ 636 µM)	25 mg/L (≈ 79.6 µM)	100 mg/L (≈ 318 µM)	12.5 mg/L (≈ 39.8 µM)	–	–	–	–	-fold reduction of MIC in the presence of PAβN [3, 11]: 8 -fold; -fold reduction of MIC in the presence of PAβN [4, 11]: 2 -fold; MFC ([5]; Saccharomyces cerevisiae, ATCC9763, S. cerevisiae ATCC 9763): 400 mg/L (≈ 1270 µM)
C[Si]1(C)OB(O)c2ccc(SC(=O)c3ccc(C(F)(F)F)cc3)c(F)c21 [Compound 25, S-(7-Fluoro-3-hydroxy-1,1-dimethyl-1,3-dihydrobenzo[c][1,2,5]oxasilaborol-6-yl) 4-(trifluoromethyl)benzothioate]	–	> 50 mg/L	> 50 mg/L	> 50 mg/L	> 50 mg/L	–	25 mg/L (≈ 62.5 µM)	> 50 mg/L	12.5 mg/L (≈ 31.2 µM)	3.12 mg/L (≈ 7.8 µM)	12.5 mg/L (≈ 31.2 µM)	12.5 mg/L (≈ 31.2 µM)	25 mg/L (≈ 62.5 µM)	25 mg/L (≈ 62.5 µM)	> 50 mg/L	25 mg/L (≈ 62.5 µM)	–
C[Si]1(C)OB(O)c2cc(F)c(SC3CC(=O)N(c4ccc(F)cc4)C3=O)c(F)c21 (centres unmarked) [Compound 14, 3-((5,7-Difluoro-3-hydroxy-1,1-dimethyl-1,3-dihydrobenzo[c][1,2,5]oxasilaborol-6-yl)thio)-1-(4-fluorophenyl)pyrrolidine-2,5-dione]	30 mm	12.5 mg/L (≈ 28.6 µM)	> 200 mg/L	> 200 mg/L	25 mg/L (≈ 57.2 µM)	30 mm	50 mg/L (≈ 114 µM)	> 200 mg/L	25 mg/L (≈ 57.2 µM)	50 mg/L (≈ 114 µM)	50 mg/L (≈ 114 µM)	50 mg/L (≈ 114 µM)	–	–	–	–	MFC ([1]; Pichia kudriavzevii, ATCC6258, C. krusei ATCC 6258): 100 mg/L (≈ 229 µM); diameter of inhibition zone ([4]; (-) = zone not observed, paper discs 9 mm): 11 mm; MBC [4, 12]: 100 mg/L (≈ 229 µM)
C[Si]1(C)OB(O)c2ccc(SCCC(=O)OCCCCCC[n+]3ccccc3)c(F)c21 [Compound 19, 1-(6-((3-((7-Fluoro-3-hydroxy-1,1-dimethyl-1,3-dihydrobenzo[c][1,2,5]oxasilaborol-6-yl)thio)propanoyl)oxy)hexyl)pyridin-1-ium trifluoromethanesulfonate]	–	> 400 mg/L	> 400 mg/L	> 400 mg/L	> 400 mg/L	–	> 400 mg/L	> 400 mg/L	100 mg/L	25 mg/L	100 mg/L	25 mg/L	400 mg/L	100 mg/L	–	100 mg/L	–
CC(=O)CCSc1c(F)cc2c(c1F)[Si](C)(C)OB2O [Compound 3, 4-((5,7-Difluoro-3-hydroxy-1,1-dimethyl-1,3-dihydrobenzo[c][1,2,5]oxasilaborol-6-yl)thio)butan-2-one]	–	200 mg/L (≈ 632 µM)	> 400 mg/L	> 400 mg/L	400 mg/L (≈ 1260 µM)	–	400 mg/L (≈ 1260 µM)	> 400 mg/L	25 mg/L (≈ 79.1 µM)	25 mg/L (≈ 79.1 µM)	12.5 mg/L (≈ 39.5 µM)	50 mg/L (≈ 158 µM)	200 mg/L (≈ 632 µM)	200 mg/L (≈ 632 µM)	200 mg/L (≈ 632 µM)	200 mg/L (≈ 632 µM)	–
C[Si]1(C)OB(O)c2ccc(SC3CC(=O)N(c4ccc(F)cc4)C3=O)c(F)c21 (centres unmarked) [Compound 15, 3-((7-Fluoro-3-hydroxy-1,1-dimethyl-1,3-dihydrobenzo[c][1,2,5]oxasilaborol-6-yl)thio)-1-(4-fluorophenyl)pyrrolidine-2,5-dione]	29 mm	25 mg/L (≈ 59.6 µM)	> 200 mg/L	> 200 mg/L	> 200 mg/L	26 mm	200 mg/L (≈ 477 µM)	> 200 mg/L	12.5 mg/L (≈ 29.8 µM)	12.5 mg/L (≈ 29.8 µM)	25 mg/L (≈ 59.6 µM)	25 mg/L (≈ 59.6 µM)	–	–	–	–	–
